In DBAASP one finds MIC data, which are given here for three compounds.

Some test systems named below: Escherichia coli MH1; Staphylococcus aureus; Enterococcus faecium; Escherichia coli; Pseudomonas aeruginosa.
Common to all, as to assay: ≥ marks a high value that may be exact or a test limit, other limits are often not marked, values filed in µg/mL are converted to µM
For assay [1], the system named is Arthrobacter globiformis VKM Ac-1112.
The test system of assay [2] is Bacillus subtilis subsp. spizizenii DSM 347.
For assay [3], the system named is Pseudomonas aeruginosa PAO1.
Assay [4] concerns Acinetobacter sp. DSM 586.
Assay [5] deals with Staphylococcus xylosus DSM 20267.
Assay [6] relates to Escherichia coli DSM 1116.
Assay [7] concerns Saccharomyces cerevisiae Y190.
The test system of assay [8] is Bacillus subtilis VKM B-501.
Assay [9] has as its system Escherichia coli DH5alpha.
For assay [10], the system named is Pseudomonas aeruginosa ATCC 27853.
Assay [11] deals with Escherichia coli O157:H7 ATCC 43895.
In assay [12] the test system is Candida albicans ATCC 90028.
The subject of assay [13] is Enterococcus faecium ATCC 19434.
Assay [14] concerns Aspergillus flavus KCTC 1375.
For assay [15], the system named is Malassezia furfur KCTC 7744.
Assay [16] concerns Staphylococcus aureus ATCC 25923.
The subject of assay [17] is Candida albicans ATCC 10231.
Assay [18] concerns Salmonella enterica subsp. enterica serovar Enteritidis ATCC 13076.
Assay [19] deals with Saccharomyces cerevisiae ATCC 44774.
Assay [20] deals with Pseudomonas putida ATCC 17426.
Assay [21] has as its system Cryptococcus neoformans ATCC 34881.
In assay [22] the test system is Escherichia coli ATCC 27325.
The subject of assay [23] is Staphylococcus aureus ATCC 15752.
In assay [24] the test system is Streptococcus mutans ATCC 25175.
Assay [25] has as its system Bacillus subtilis ATCC 62037.

≈ marks a conversion by molar mass, not a printed value.

As usually defined, the MIC is the smallest concentration in the dilution series that meets the test's criterion for growth inhibition. As to `CC[C@H](C)[C@H](NC(=O)[C@H](Cc1ccc(O)cc1)NC(=O)[C@H](CCC(N)=O)NC(=O)[C@H](CCCCN)NC(=O)[C@H](CC(C)C)NC(=O)[C@H](CCCCN)NC(=O)[C@H](CCC(=O)O)NC(=O)CNC(=O)[C@H](CCSC)NC(=O)[C@H](CO)NC(=O)[C@H](CCCCN)NC(=O)[C@H](Cc1ccccc1)NC(=O)[C@H](CCCCN)NC(=O)[C@H](CC(=O)O)NC(=O)[C@H](CCCCN)NC(=O)[C@H](CC(C)C)NC(=O)CN)C(=O)N[C@@H](CCC(N)=O)C(=O)N[C@H](C(=O)N[C@@H](Cc1c[nH]c2ccccc12)C(=O)N[C@@H](CCCCN)C(=O)N[C@@H](C)C(=O)N[C@@H](CCCCN)C(=O)N[C@@H](Cc1ccccc1)C(N)=O)[C@@H](C)O` [GLKDKFKSMGEKLKQYIQTWKAKF], the MIC in assay [1] is 0.3 µM (≈ 0.871 µg/mL); in [2] it was 2.76 µM (≈ 8 µg/mL); in assay [3], > 35 µM; in [4] it was 2.76 µM (≈ 8 µg/mL); in [5], 1.38 µM (≈ 4 µg/mL); in assay [6], 11 µM (≈ 32 µg/mL). The MIC is 18 µM (≈ 52.2 µg/mL) in [7], 1.1 µM (≈ 3.19 µg/mL) in assay [8], 3.2 µM (≈ 9.29 µg/mL) against Escherichia coli MH1 and 4.5 µM (≈ 13.1 µg/mL) in assay [9].
Consider `CC(C)C[C@H](NC(=O)[C@H](C)NC(=O)[C@H](C)NC(=O)[C@H](CCCCN)NC(=O)CNC(=O)[C@@H](NC(=O)[C@H](Cc1cnc[nH]1)NC(=O)[C@H](CCCCN)NC(=O)CNC(=O)[C@@H](NC(=O)[C@H](Cc1cnc[nH]1)NC(=O)[C@H](C)NC(=O)[C@H](C)NC(=O)[C@H](CCCCN)NC(=O)[C@H](CCCCN)NC(=O)[C@H](Cc1ccccc1)NC(=O)[C@H](Cc1ccccc1)NC(=O)[C@H](CO)NC(=O)CNC(=O)[C@H](Cc1c[nH]c2ccccc12)NC(=O)CN)C(C)C)C(C)C)C(=O)N[C@H](C(N)=O)[C@@H](C)O` [GWGSFFKKAAHVGKHVGKAALT], for which the MIC in [10] is 7.07 µM (≈ 16.2 µg/mL); in assay [11] it was 7.07 µM (≈ 16.2 µg/mL); in assay [12] it was 10 µM (≈ 23 µg/mL); in the assay with Staphylococcus aureus, 7.07 µM (≈ 16.2 µg/mL); in the assay on Enterococcus faecium it was 7.07 µM (≈ 16.2 µg/mL); in assay [13], 10 µM (≈ 23 µg/mL). For the same compound, the MIC in assay [14] was 10 µM (≈ 23 µg/mL); in [15], 10 µM (≈ 23 µg/mL); in assay [16], 10 µM (≈ 23 µg/mL); with Escherichia coli it was 7.07 µM (≈ 16.2 µg/mL); against Pseudomonas aeruginosa it was 10 µM (≈ 23 µg/mL).
Regarding `CC[C@H](C)[C@H](NC(=O)[C@@H]1CCCN1C(=O)[C@H](Cc1c[nH]c2ccccc12)NC(=O)[C@H](CCC(N)=O)NC(=O)[C@H](CCCN=C(N)N)NC(=O)[C@@H](NC(=O)[C@@H](NC(=O)[C@@H](N)CCCN=C(N)N)C(C)C)C(C)C)C(=O)NCC(=O)N[C@@H](CCCN=C(N)N)C(=O)N[C@H](C(=O)N[C@H](C(=O)N[C@@H](CCCN=C(N)N)C(=O)N[C@@H](CCCN=C(N)N)C(=O)N[C@H](C(=O)N[C@H](C(=O)N[C@@H](CCCN=C(N)N)C(=O)N[C@@H](CCCN=C(N)N)C(=O)N[C@H](C(=O)N[C@H](C(=O)N[C@@H](CCCN=C(N)N)C(=O)O)C(C)C)C(C)C)C(C)C)C(C)C)C(C)C)C(C)C` [RVVRQWPIGRVVRRVVRRVVR], the MIC turned out to be 0.379 µM (≈ 1 µg/mL) in assay [17]; 0.535 µM (≈ 1.41 µg/mL) in [18]; 0.268 µM (≈ 0.707 µg/mL) in assay [19]; 0.379 µM (≈ 1 µg/mL) in assay [20]; 0.379 µM (≈ 1 µg/mL) in [21]; 0.268 µM (≈ 0.707 µg/mL) in assay [22]. The MIC in [23], in [24] and in [25] was 0.535 µM (≈ 1.41 µg/mL) each time.
